Experimental data reported in ChEMBL document CHEMBL3751757, “Three-component, one-pot synthesis of benzo[6,7]cyclohepta[1,2-b]pyridine derivatives under catalyst free conditions and evaluation of their anti-inflammatory activity” (Bioorg Med Chem Lett, 2016).
pIC50: −log10 of the molar value.

How the values were obtained:
THP-1 [1] = experiment: Anti-inflammatory activity in human THP1 cells assessed as inhibition of PMA-induced MCP-1 production after 48 hrs by ELISA; type: functional, cell-based; settings: THP-1, 48 h
[2] = Cytotoxicity against human THP1 cells assessed as cell viability at 20 uM after 48 hrs by trypan blue dye exclusion assay; type: functional; settings: THP-1, 48 h, read-out: Activity
THP-1 [3] = experiment: Anti-inflammatory activity in human THP1 cells assessed as inhibition of PMA-induced IL-1beta production after 48 hrs by ELISA; type: functional, cell-based; settings: THP-1, 48 h

Compound	pIC50 (THP-1 [1])	viability at 20 µM [2] [%]	pIC50 (THP-1 [3])
CCOC(=O)c1cc2c(nc1-c1ccccc1)-c1cc(C)c(C)cc1CCC2	5.07	97.6	4.74
CC(=O)c1cc2c(nc1C)-c1cc(C)c(C)cc1CCC2	4.83	97.6	< 4.70
COC(=O)c1cc2c(nc1C)-c1ccccc1CCC2	< 4.70	97.2	5.09
Cc1cc2c(cc1C)-c1nc3c(cc1CCC2)C(=O)CC(C)(C)C3	< 4.70	105	< 4.70
CC1(C)CC(=O)c2cc3c(nc2C1)-c1ccccc1CCC3	5.25	98.2	< 4.70
CCOC(=O)c1cc2c(nc1C)-c1cc(C)c(C)cc1CCC2	5.07	95.9	5.19
O=C1CCCc2nc3c(cc21)CCCc1ccccc1-3	< 4.70	96.8	< 4.70
O=C(c1ccccc1)c1cc2c(nc1-c1ccccc1)-c1ccccc1CCC2	< 4.70	99.4	4.76
Cc1cc2c(cc1C)-c1nc(-c3ccccc3)c(C(=O)c3ccccc3)cc1CCC2	< 4.70	101	< 4.70
CC(=O)c1cc2c(nc1C)-c1ccccc1CCC2	< 4.70	92.3	< 4.70
CN1C(C(=O)Nc2ccccn2)=C(O)c2ccccc2S1(=O)=O [PIROXICAM]		98.1	4.74
CCOC(=O)c1cc2c(nc1C)-c1ccccc1CCC2	< 4.70	99.2	5.16
CCOC(=O)c1cc2c(nc1-c1ccccc1)-c1ccccc1CCC2	< 4.70	103	< 4.70
Cc1cc2c(cc1C)-c1nc3c(cc1CCC2)C(=O)CCC3	< 4.70	97.1	< 4.70
COC(=O)c1cc2c(nc1C)-c1cc(C)c(C)cc1CCC2	4.80	98.3	5.07
